# Patent US5169780A, “Enantiomeric enrichment and stereoselective synthesis of chiral amines” (Celgene Corporation, priority 1990, dated 1992)
# Assays:
# [1] = tested on: omega-amino acid transaminase; assay: relative rates of conversion of different chiral amines by soluble enzymatic preparations; format: biochemical; settings: for conversion to the nonchiral ketone by the transaminase: racemate subjected to the enzyme
# Procedure: (§1) Enzyme Activity: Enzyme activity is expressed herein as units/mg. A unit of enzyme activity is defined as that which produces 1 micromole of ketone per minute. For uniformity, this is measured as micromoles of 1-phenylbutan-3-one formed from R,S-1-phenyl-3-aminobutane. The following standardized assay was utilized to measure the activity of the omega-amino acid transaminases set forth in the examples which follow.
# (§2) A known volume of the enzyme preparation to be tested is incubated at 37° C. and pH 7 in a solution having the following composition:
# (§3) A sample is removed and 20% by volume of 12% aqueous trichloroacetic acid are added. Precipitated protein is removed by centrifugation and the concentration of 1-phenylbutan-3-one in the supernatant is determined by liquid chromatography on a 100×8 mm 4 micron Novopak phenyl column eluting with 40% isopropanol and 0.09% phosphoric acid in water. Under these conditions, 1-phenylbutan-3-one elutes at 5.3 minutes.
# The following procedure exemplifies the relative rates of conversion, determined directly or calculated from kinetic data, of different chiral amines by soluble enzymatic preparations utilizing the assay described above but substituting the indicated chiral amine.
# [2] = tested on: omega-amino acid transaminase; assay: relative rates of conversion of 1-phenyl-3-aminobutane with different amino acceptors in place of pyruvate; format: biochemical; settings: for Relative Rate of Conversion: substrate 1-phenyl-3-aminobutane
# Procedure: as §1, §2, §3
# The following procedure exemplifies the relative rates of conversion with 1-phenyl-3-aminobutane employing different amino acceptors in place of pyruvate in the assay described above.
# Bacillus megaterium = assay: induction of omega-amino acid transaminase production by addition of an amine to cultures; format: cell-based; settings: 2 mM amine inducer, 30 to 40 hours; for Specific Activity (units/mg) Acetate: 40 mM acetate as carbon source; for Specific Activity (units/mg) Succinate: 40 mM succinate as carbon source
# Procedure: as §1, §2, §3
# Enzyme Recovery: Unless otherwise indicated, cells from culture are centrifuged for 10 minutes at 10,000 G, resuspended in 10 mM of phosphate buffer at pH 7 and 0.5 mM of pyridoxal phosphate, and ruptured by two passes through a chilled French press operating at 15,000 psi. Cell debris is removed by centrifugation for one hour at 10,000 G and the enzyme-containing supernatant collected.
# The following procedure exemplifies the growth of microorganisms using ammonium as the sole nitrogen source and then inducing omega-amino acid transaminase production by the addition of an amine.
# Bacillus megaterium was grown in 1 L cultures in the standard salt medium supplemented with 40 mM of the indicated carbon source, 5 mM of ammonium chloride, 80 mM of phosphate buffer, and 2 mM of the amine inducer indicated below. After 30 to 40 hours, the enzyme was collected and assayed as described above.
# [3] = tested on: omega-amino acid transaminase; assay: standardized omega-amino acid transaminase activity assay (1-phenylbutan-3-one formed from R,S-1-phenyl-3-aminobutane), B. megaterium enzyme; format: biochemical, Bacillus megaterium
# Procedure: as §1, §2, §3
# (§4) Enzyme extracts from P. putida, B. megaterium, and P. aeruginosa obtained as above were assayed as above at pH 9 in 50 mM of Tris/HCl using 30 mM of R,S-1-phenyl-3-aminobutane, with and without 100 mM of sodium pyruvate. The following relative rates of conversion were observed.
# (§5) The transaminase nature of the enzymatic action is apparent from the effect of "suicide inactivators" known to be specific for transaminases {see, for example, Burnett et al., J. Bio. Chem., 225, 428-432 (1980)}, the inactivator (0.5 mM) being preincubated with the assay medium before addition of R,S-1-phenyl-3-aminobutane.
# (§6) The stereoselectivity of the omega-amino acid transaminase can be seen from the corresponding assay utilizing 15 mM of R-1-phenyl-3-aminobutane (with pyruvate).
# [4] = tested on: omega-amino acid transaminase; assay: standardized omega-amino acid transaminase activity assay, P. putida enzyme; format: biochemical, Pseudomonas putida
# Procedure: as §1, §2, §3
# Pseudomonas putida ATCC 39213 was cultured as described in Example 1 and an enzyme extract then was obtained as therein described. The specific activity of the omega-amino acid transaminase was 0.045 units/mg.
# as §4, §5, §6
# [5] = solvent-to-aqueous phase partition coefficient of the ketone; format: physicochemical; settings: heptane as organic solvent
# Description: The organic solvent will normally be one in which the ketone produced is soluble to a greater degree than in water. Solvents in which the ketone has a solvent-to-aqueous phase partition coefficient greater than one are suitable and those with coefficients greater than 8 are preferred. Examples of these are liquid hydrocarbons such as benzene or hexane, halogenated hydrocarbons such as chloroform, dichloromethane or, carbon tetrachloride, various fluorocarbons such as freon, long-chain alcohols such as octanol or decanol, esters such as ethyl acetate, or triglyceride oils, A solvent which typifies this is heptane which has a partition coefficient of ≈24. Supercritical fluids such as supercritical CO2 may also be used.
# [6] = tested on: omega-amino acid transaminase; assay: rate of immobilized enzyme reaction with added benzylacetone; format: biochemical, Bacillus megaterium; settings: 80 mM R,S-1-phenyl-3-aminobutane, 60 mM glyoxylate, pH 6.5
# Procedure: Immobilization: A 47 mm diameter […] (FMC Corp.) support matrix (0.4 g) was loaded into a housing (Millipore Sweenex) fitted with inlet and outlet tubing, a peristaltic pump, and reservoir. The matrix was washed sequentially, at ambient temperatures and a rate of 3 ml/min., with (1) 200 ml of 50 mM of phosphate buffer (pH 7) containing 0.5 mM pyridoxal phosphate over a period of 20 min., (2) 11 ml of a 4.6 mg/ml solution of enzyme obtained in the manner of Example 1 for 120 min., (3) 150 ml of 0.3 M sodium chloride in 50 mM of phosphate buffer (pH 7) containing 0.5 mM pyridoxal phosphate for 30 minutes, and (4) 200 ml of 50 mM of phosphate buffer (pH 7) containing 0.5 mM pyridoxal phosphate over a period of 20 min.
# A solution of omega-amino acid transaminase was immobilized onto a matrix according to the methods in Example 16. Four independent 200 milliliter substrate solutions containing 80 mM of R,S-1-phenyl-3-aminobutane, 60 mM glyoxylate, 0.1 mM pyridoxal phospate, and 50 mM potassium phosphate (pH 6.5) were prepared. Benzylacetone in concentrations of 0.50 mM, 0.85 mM, 1.45 mM, and 2.55 mM, respectively, were added to the four substrate solutions and these were pumped through the immobilized enzyme matrix. The rate of the enzyme catalyzed reaction was measured in micromoles/minute.
# β-alanine transaminase = settings: relative activities, Nakano et al. 1977; cited from earlier work
# [7] = tested on: -aminobutyrate transaminase; settings: relative activities, Nakano et al. 1977; cited from earlier work
# [8] = target: T1, omega-amino acid transaminase (Pseudomonas aeruginosa, UniProt Q9I700); assay: standardized omega-amino acid transaminase activity assay, P. aeruginosa enzyme; format: biochemical
# T1 construct: cell extracts containing the omega-amino acid transaminase then are obtained as therein described; host or cells: Pseudomonas aeruginosa ATCC 15692, cell extract
# T1 sequence (Q9I700 1-448): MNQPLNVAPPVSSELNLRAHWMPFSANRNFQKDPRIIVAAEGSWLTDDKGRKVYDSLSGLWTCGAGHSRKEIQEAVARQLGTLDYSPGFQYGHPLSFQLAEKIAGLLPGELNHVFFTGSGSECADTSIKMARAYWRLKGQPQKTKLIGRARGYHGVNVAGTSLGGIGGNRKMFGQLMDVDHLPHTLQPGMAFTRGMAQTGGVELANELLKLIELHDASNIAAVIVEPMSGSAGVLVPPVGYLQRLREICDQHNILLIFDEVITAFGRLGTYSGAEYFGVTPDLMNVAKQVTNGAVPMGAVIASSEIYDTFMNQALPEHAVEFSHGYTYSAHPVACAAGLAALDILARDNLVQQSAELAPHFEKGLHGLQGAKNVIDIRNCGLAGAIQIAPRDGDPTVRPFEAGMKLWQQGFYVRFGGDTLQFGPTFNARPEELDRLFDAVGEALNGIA
# [9] = general statement of the description
# [10] = inactivator 0.5 mM preincubated before addition of R,S-1-phenyl-3-aminobutane, None = 100
# [11] = stereoselectivity: 15 mM R-1-phenyl-3-aminobutane versus R,S-, with pyruvate
structure (smiles),measurement,setting,value
NC(CO)c1ccccc1 (centres unmarked) [phenylglycinol],Relative Rate of Conversion R-enantiomer,"[1]; amine (R,S) 10 mM",100
same,Relative Rate of Conversion S-enantiomer,"[1]; amine (R,S) 10 mM",0
O=Cc1ccccc1 [benzaldehyde],Relative Rate of Conversion,[2]; amino acceptor 25 mM,17
CC(N)c1ccc([N+](=O)[O-])cc1 (centres unmarked) [1-(4-nitrophenyl)-1-aminoethane],Relative Rate of Conversion R-enantiomer,"[1]; amine (R,S) 5 mM",0
same,Relative Rate of Conversion S-enantiomer,"[1]; amine (R,S) 5 mM",100
"CCC(C)N (racemic) [R,S-2-aminobutane]",Specific Activity (units/mg) Acetate,Bacillus megaterium,0.14 units/mg
same,Specific Activity (units/mg) Succinate,Bacillus megaterium,0.13 units/mg
CCCC(C)=O [2-pentanone],Relative Rate of Conversion,[2]; amino acceptor 25 mM,33
CC(N)Cc1ccccc1 (centres unmarked) [3-phenyl-2-aminopropane],Relative Rate of Conversion R-enantiomer,"[1]; amine (R,S) 10 mM",100
same,Relative Rate of Conversion S-enantiomer,"[1]; amine (R,S) 10 mM",0
same,Relative Rate of Conversion R-enantiomer,"[1]; amine (R,S) 15 mM",7
same,Relative Rate of Conversion S-enantiomer,"[1]; amine (R,S) 15 mM",100
C[C@@H](N)c1ccc(Br)cc1 [R-1-amino-1-(4-bromophenyl)ethane],conversion to the nonchiral ketone by the transaminase,[1]; [9],unchanged
"NC1C=CC=C(C(=O)O)C1 (centres unmarked) [Gabaculine, reference compound]",Relative Rate of Conversion B. megaterium,[3]; [10],13
same,Relative Rate of Conversion P. putida,[4]; [10],0
CCCCCCC(C)N (centres unmarked) [2-aminooctane],Relative Rate of Conversion R-enantiomer,"[1]; amine (R,S) 5 mM",0
same,Relative Rate of Conversion S-enantiomer,"[1]; amine (R,S) 5 mM",100
CCCCCCC=O [heptaldehyde],Relative Rate of Conversion,[2]; amino acceptor 25 mM,80
CCCCCCC [heptane],"partition coefficient (ketone, solvent-to-aqueous phase)",[5],≈ 24
CCC=O [propionaldehyde],Relative Rate of Conversion,[2]; amino acceptor 20 mM,100
O=CC(=O)O [glyoxalate],Relative Rate of Conversion,[2]; amino acceptor 20 mM,50
CC(=O)CCc1ccccc1 [benzylacetone],ENZYME ACTIVITY,[6]; benzylacetone 0.50 mM,11.2 µM/min
same,ENZYME ACTIVITY,[6]; benzylacetone 0.85 mM,9.5 µM/min
same,ENZYME ACTIVITY,[6]; benzylacetone 1.45 mM,8.1 µM/min
same,ENZYME ACTIVITY,[6]; benzylacetone 2.55 mM,6.1 µM/min
CCC(C)=O [butan-2-one],Relative Rate of Conversion,[2]; amino acceptor 20 mM,20
NCCC(=O)O [β-alanine],activity of β-alanine transaminase on the substrate,β-alanine transaminase,100
same,activity of -aminobutyrate transaminase on the substrate,[7],3
O=C1CCCC1 [cyclopentanone],Relative Rate of Conversion,[2]; amino acceptor 25 mM,12
CC(N)c1ccc(Br)cc1 (centres unmarked) [1-(4-bromophenyl)-1-aminoethane],Relative Rate of Conversion R-enantiomer,"[1]; amine (R,S) 30 mM",0
same,Relative Rate of Conversion S-enantiomer,"[1]; amine (R,S) 30 mM",100
CC[C@@H](C)N [R-2-aminobutane],Specific Activity (units/mg) Acetate,Bacillus megaterium,0.13 units/mg
same,Specific Activity (units/mg) Succinate,Bacillus megaterium,0.06 units/mg
C[C@@H](N)c1ccccc1 [R-1-phenyl-1-aminoethane],Specific Activity (units/mg) Acetate,Bacillus megaterium,0.36 units/mg
same,Specific Activity (units/mg) Succinate,Bacillus megaterium,0.27 units/mg
same,conversion to the nonchiral ketone by the transaminase,[1]; [9],unchanged
NCCc1ccc(O)cc1 [tyramine],Specific Activity (units/mg) Acetate,Bacillus megaterium,0.24 units/mg
CC(N)CCCc1cccnc1 (centres unmarked) [5-(3-pyridyl)-2-aminopentane],Relative Rate of Conversion R-enantiomer,"[1]; amine (R,S) 5 mM",0
same,Relative Rate of Conversion S-enantiomer,"[1]; amine (R,S) 5 mM",100
CCC(N)c1ccccc1 (centres unmarked) [1-phenyl-1-aminopropane],Relative Rate of Conversion R-enantiomer,"[1]; amine (R,S) 20 mM",11
same,Relative Rate of Conversion S-enantiomer,"[1]; amine (R,S) 20 mM",100
C[C@@H](N)CCc1ccccc1 [R-1-phenyl-3-aminobutane],Relative Rate of Conversion B. megaterium,[3]; [11],15
same,Relative Rate of Conversion P. aeruginosa,[8]; [11],4
same,Relative Rate of Conversion P. putida,[4]; [11],3
same,Specific Activity (units/mg) Acetate,Bacillus megaterium,0.26 units/mg
same,Specific Activity (units/mg) Succinate,Bacillus megaterium,0.21 units/mg
same,conversion to 1-phenylbutan-3-one as a factor of that of the S-form,[1]; [9],≤ 0.05
NCCCC(=O)O [-aminobutyrate],activity of β-alanine transaminase on the substrate,β-alanine transaminase,43
same,activity of -aminobutyrate transaminase on the substrate,[7],100
CC(=O)c1ccccc1 [acetophenone],relative rates,"[2]; as amino acceptor, concentration not given",≤ 10
O=C1CCCCC1 [cyclohexanone],Relative Rate of Conversion,[2]; amino acceptor 25 mM,23
"CC(N)CCc1ccccc1 (racemic) [R,S-1-phenyl-3-aminobutane]",Relative Rate of Conversion B. megaterium,[3]; [11],100
same,Relative Rate of Conversion P. aeruginosa,[8]; [11],100
same,Relative Rate of Conversion P. putida,[4]; [11],100
same,Specific Activity (units/mg) Acetate,Bacillus megaterium,0.33 units/mg
same,Specific Activity (units/mg) Gluconate,Bacillus megaterium; 40 mM gluconate as carbon source,0.26 units/mg
same,Specific Activity (units/mg) Glucose,Bacillus megaterium; 40 mM glucose as carbon source,0.62 units/mg
same,Specific Activity (units/mg) Succinate,Bacillus megaterium,0.28 units/mg
same,Relative Rate of Conversion R-enantiomer,"[1]; amine (R,S) 30 mM",5
same,Relative Rate of Conversion S-enantiomer,"[1]; amine (R,S) 30 mM",100
"CC(N)c1ccccc1 (racemic) [R,S-1-phenyl-1-aminoethane]",Specific Activity (units/mg) Acetate,Bacillus megaterium,0.39 units/mg
same,Specific Activity (units/mg) Succinate,Bacillus megaterium,0.27 units/mg
same,Relative Rate of Conversion R-enantiomer,"[1]; amine (R,S) 10 mM",0
same,Relative Rate of Conversion S-enantiomer,"[1]; amine (R,S) 10 mM",100
CC(N)c1cccc2ccccc12 (stereo not drawn) [1-(α-naphthyl)1-aminoethane],Relative Rate of Conversion R-enantiomer,"[1]; amine (R,S) 10 mM",0
same,Relative Rate of Conversion S-enantiomer,"[1]; amine (R,S) 10 mM",100
CC=O [acetaldehyde],Relative Rate of Conversion,[2]; amino acceptor 20 mM,50
"NO [Hydroxylamine, reference compound]",Relative Rate of Conversion B. megaterium,[3]; [10],10
same,Relative Rate of Conversion P. aeruginosa,[8]; [10],0
same,Relative Rate of Conversion P. putida,[4]; [10],3
CCCC=O [butyraldehyde],Relative Rate of Conversion,[2]; amino acceptor 20 mM,90
